# Experimental data reported in US6759509B1, “Branched peptide linkers” (Bristol-Myers Squibb Company, priority 1996, dated 2004).
# Test: decomposition of the isolated drug/linker in solution
# Assay type: physicochemical
# Settings: by HPLC for Example 31
# Procedure: A solution of MEt-IDA-(Phe-Lys(Mtr)-PABC-MMC)2 30 (134.6 mg, 0.0590 mmol) in methylene chloride (3 mL) at rt was treated with anisole (1.28 mL, 200 equiv) and 1 M chloroacetic acid in methylene chloride (1.18 mL, 20 equiv). After 3.5 h ethyl acetate (30 mL) was added. The resulting purple solid was collected by filtration, washed with ethyl acetate and air-dried (97.8 mg, 82%). […] MS (FAB) 1738.3 (M+Na)^+, 1776.4 (M+K)^+.
# MEt-IDA-(Phe-Lys(Mtr)-PABC-7-Paclitaxel)2 33 (333.0 mg, 0.0861 mmol) in methylene chloride (3 mL) was treated with anisole (1.87 mL, 200 equiv) and 1 M chloroacetic acid in methylene chloride (1.72 mL, 20 equiv). After 4 h the mixture was diluted with ether (30 mL). The resulting suspension was sonicated for several minutes and then the solid was collected by filtration and washed with ether (256.3 mg, 97%). […] MS (ESI) 2778.2 (MH)^+.
substance,measurement,value
MEt-IDA-(Phe-Lys-PABC-MMC)2.2Cl2CHCO2H [Example 31],stability of the product in solution,appeared to decompose in solution to one product
